Test systems include KM12; Malme-3M; 786-0; NCI-H226; T47D; MDA-MB-435; SK-MEL-5; DU-145; NCI-H23; MCF7; A549; UO-31; SW-620; OVCAR-3; MOLT-4; MDA-MB-231; SNB-19; SF-268; NCI-H460; NCI/ADR-RES.
Experiment in all cases: NCI-60 cell line screen, 48 h

The structures appear in SMILES notation.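 A five-concentration, 48-hour dose response in 96-well plates underlies each endpoint, interpolated linearly between surrounding concentrations. GI50 = concentration required for 50% inhibition of growth.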 Active and inactive are the calls of the source. Rule as the data show it: active = GI50 up to about 1.1 µM and inactive = higher. Where a SMILES comes first, the peptide text is derived from it. The star is where a group is joined. Fmoc = O=C(OCC1c2ccccc2-c2ccccc21)*; OtBu = CC(C)(C)O*

On to `COc1cc(C2C3=C(COC3=O)Oc3cc4c(cc32)OCO4)cc(OC)c1O` (stereo not given), for which the GI50 with KM12 is < 0.01 µM (active); in the assay with Malme-3M, < 0.01 µM (active); in the assay on 786-0, < 0.0152 µM (active); in the assay with NCI-H226, < 0.0118 µM (active); with T47D, 0.0157 µM (active); in the assay with MDA-MB-435, < 0.01 µM (active). For the same molecule, the GI50 in the assay on SK-MEL-5 is < 0.01 µM (active); in the assay with DU-145 it was 0.0157 µM (active); in the assay on NCI-H23, 0.465 µM (active); in the assay with MCF7, < 0.01 µM (active); with A549, < 0.0141 µM (active); with UO-31, 0.0592 µM (active). Further, the GI50 in the assay with SW-620 is 0.0124 µM (active); in the assay on OVCAR-3 it was 0.0127 µM (active); in the assay with MOLT-4 it was 0.0175 µM (active); in the assay with MDA-MB-231 it was < 0.0246 µM (active); in the assay on SNB-19 it was < 0.0123 µM (active); with SF-268, 0.226 µM (active). Moreover, the results for the GI50 with NCI-H460 and in the assay with NCI/ADR-RES were < 0.0139 µM (active) and < 0.01 µM (active), respectively.

As for `CCCCOC(=O)C(O)Cc1ccoc1` (stereo not given), the GI50 with KM12, with Malme-3M, in the assay on 786-0, in the assay with NCI-H226, in the assay on T47D and with MDA-MB-435 was > 100 µM (inactive) each time. Moreover, the GI50 in the assay on SK-MEL-5, in the assay with DU-145, with NCI-H23, with MCF7, in the assay with A549 and with UO-31 was > 100 µM (inactive) each time. In addition, the GI50 in the assay on SW-620, with OVCAR-3, in the assay with MOLT-4, with MDA-MB-231, with SNB-19 and with SF-268 was > 100 µM (inactive) each time. For the same molecule, the GI50 in the assay with NCI-H460 and in the assay on NCI/ADR-RES was > 100 µM (inactive) in each case.

`CC(C)C(NC(=O)OCC1c2ccccc2-c2ccccc21)C(=O)NC(CCC(=O)OC(C)(C)C)C(=O)OC(C)(C)C` (stereo not given) (Fmoc-Val-Glu(OtBu)-OtBu; configuration not given here): the GI50 was > 29.2 µM (inactive) in the assay with KM12; > 100 µM (inactive) with Malme-3M; > 100 µM (inactive) with 786-0; > 100 µM (inactive) with NCI-H226; 8.57 µM (inactive) in the assay with T47D; > 100 µM (inactive) with MDA-MB-435. Besides, the GI50 with SK-MEL-5 was 7.69 µM (inactive); in the assay with DU-145 it was > 100 µM (inactive); in the assay with NCI-H23 it was 14.9 µM (inactive); in the assay with MCF7 it was > 76.4 µM (inactive); in the assay with A549 it was 60 µM (inactive); in the assay with UO-31 it was > 56.2 µM (inactive). Further, the GI50 in the assay with SW-620 was > 71.4 µM (inactive); in the assay on OVCAR-3 it was > 100 µM (inactive); with MOLT-4, 4.21 µM (inactive); with MDA-MB-231, 19.3 µM (inactive); in the assay on SNB-19, > 100 µM (inactive); in the assay with SF-268, > 87.3 µM (inactive). For the same molecule, the GI50 with NCI-H460 was 21.2 µM (inactive); with NCI/ADR-RES, 27 µM (inactive).

Take `C[C@@H](CN1CC(=O)NC(=O)C1)N1CC(=O)NC(=O)C1` [DEXRAZOXANE]: the GI50 in the assay with KM12 was 522 µM (inactive); in the assay on Malme-3M it was 165 µM (inactive); in the assay on 786-0, 266 µM (inactive); with NCI-H226 it was 101 µM (inactive); with T47D, 109 µM (inactive); with MDA-MB-435, 395 µM (inactive). The GI50 in the assay on SK-MEL-5 was 174 µM (inactive); in the assay on DU-145, 255 µM (inactive); in the assay with NCI-H23, 125 µM (inactive); with MCF7, 24.4 µM (inactive); in the assay with A549, 37.2 µM (inactive); with UO-31, 354 µM (inactive). For the same molecule, the GI50 in the assay with SW-620 is 57.5 µM (inactive); in the assay with OVCAR-3 it was 224 µM (inactive); in the assay on MOLT-4 it was 15.8 µM (inactive); in the assay with MDA-MB-231 it was 168 µM (inactive); in the assay with SNB-19, 279 µM (inactive); in the assay on SF-268, 378 µM (inactive). Moreover, the GI50 with NCI-H460 is 6.67 µM (inactive); in the assay with NCI/ADR-RES it was 282 µM (inactive).

These data come from ChEMBL document CHEMBL1201862, “PubChem BioAssay data set” (2004).
